Source: patent publication EP1094711B1, “METHODS FOR ERADICATION OF NANOBACTERIA” (Nanobac Oy, priority 1998, dated 2000)
Structures can show the parent of a compound that is named as a salt. Where two headings read alike, the source gives them in different places.

Columns and labels:
[1] = system: SF-nanobacteria; assay: Chemical disinfection of SF-nanobacteria; assay type: cell-based; set-up: key to Resistance of SF-nanobacteria to chemical disinfectants (survival) / partial or total detachment on exposure: +++: No effect; ++: Reduced survival; +: Markedly reduced survival; - : No survival; * = partial or total detachment on exposure; conditions: for Resistance of SF-nanobacteria to chemical disinfectants (survival): room temperature, survival after subculture compared to diluent only
From the text: The cultures were exposed to the disinfectants after removal of the culture medium. For the autoclaving, UV, microwave, and drying treatments, the medium was removed and an equal amount of PBS used instead. For the heat treatments, the SF-nanobacteria were harvested by scraping the culture vessel followed by centrifugation of the medium. The obtained pellet was suspended in PBS and used in the test. After treatments the SF-nanobacteria were subcultured in DMEM medium and the growth followed by light microscopy to see the adherence and typical mineralization.
The concentrations of the chemicals used were those commonly used for disinfection or as instructed by the manufacturer. The chemicals included 70% ethanol, 2% glutaraldehyde, 4% formaldehyde, 0.5% hypochlorite, 3% hydrogen peroxide, 1M hydrochloric acid (HCl), 1M sodium hydroxide (NaOH) , 1% sodium dodecyl sulfate (SDS), 1% Tween 80, 1 % Triton X-100, 3M guanidium-hydrochloride, 3M urea, 1% Virkon® (Antec International Ltd., Suffolk, England; 100% product contains 50% potassium persulfate, 5% sulfaminoic acid), 1.5% Erifenol® (Orion OY, Finland; 100% product contains <5% NaOH, <5% o-benzyl-p-chlorophenol, 5-15% p-chloro-m-cresol), 1% Klorilli® (Orion OY, Finland; 100% product contains sodium metasilicate, sodium N-chloro-p-toluenesulfonamide-3-hydrate and 20,000 ppm active chlorine), and 3% Buraton® (Schülke & Mayr, Germany; 100% product contains 4.5% formaldehyde, 6.8% glyoxal, 1.5% glyoxylic acid, 6% dimethylaurylbenzyl-ammonium chloride). The dilutions to be used were freshly prepared on the day of exposure in sterile distilled water. As a positive control, only diluent was used. Negative control contained only culture medium.
The SF-nanobacteria were exposed to the chemicals for 10 and 30 minutes at room temperature after removal of the culture medium. After exposure, the disinfectant solution was removed and fresh medium added (with a neutralization step in the case of HCl and NaOH). If any significant deattachment occurred, nanobacteria were recovered by centrifugation, and subcultured. The exposed serum-free cultures were passaged 1:10 after 48 hours and the growth was followed by light microscopy for three weeks.

[2] = system: nanobacteria; assay: Antibiotic sensitivity test by Minimal Inhibition Concentration (MIC), 96-well plates, absorbance at 650 nm; assay type: cell-based; conditions: for IC50 / IC90: 288 h; for IC50: read-out: MIC 50; for antinanobacterial effect in the in vitro test (in words): in vitro MIC test; for IC90: 90% inhibition, read-out: MIC 90
Protocol: Antibiotic sensitivity tests were carried out by measuring Minimal Inhibition Concentration (MIC), a common practice in clinical microbiology.
The tests were performed in 96-well plates. DMEM (commercial cell culture medium) containing 10% gamma-irradiated fetal bovine serum (FBS)(dose about 3 Mrads; this treatment inactivates nanobacteria in the serum so that the basic medium is sterile) was used as the basic culture medium. These components are commercially available, e.g., from Gibco. The antibiotic stock solutions were sterile filtered through 0.2 micrometer filters. The stock solutions were then serially diluted (into the basal culture medium) to provide a final starting concentration of 0.5 mg/ml and 1:2 dilutions therefrom, unless otherwise specified. For each antibiotic three parallel tests were performed using all the antibiotic dilutions and, additionally, positive and negative control experiments. […] 100 µl of dilutions of the nanobacteria inoculum were added to all wells except the negative controls. The plates were incubated at mammalian cell culture conditions (37° Celsius, 5% carbon dioxide, 95% humid air). The absorbance values at 650 nm were recorded by using an ELISA reader at the start, and at 4, 8, 12, 14 days. […] Calculations were based on absorbance curves where absorbance was plotted against concentration of the antibiotic.

[3] = light or radiation study, 12 day time point, DMEM with 10% gamma-irradiated FBS

CCCCCCCCCCCCOS(=O)(=O)[O-].[Na+] [1 % SDS, sodium dodecyl sulfate]
Resistance of SF-nanobacteria to chemical disinfectants (survival) ([1]; Exposure time 10 min): +++ | Resistance of SF-nanobacteria to chemical disinfectants (survival) ([1]; Exposure time 30 min): +++

CCCCCCCC/C=C\CCCCCCCC(=O)OCCOCC(OCCO)C1OCC(OCCO)C1OCCO (stereo not shown) [1 % Tween 80, Tween 80]
Resistance of SF-nanobacteria to chemical disinfectants (survival) ([1]; Exposure time 10 min): +++ | Resistance of SF-nanobacteria to chemical disinfectants (survival) ([1]; Exposure time 30 min): +++

[Na+].[OH-] [1M NaOH, sodium hydroxide]
Resistance of SF-nanobacteria to chemical disinfectants (survival) ([1]; Exposure time 10 min): +++ | Resistance of SF-nanobacteria to chemical disinfectants (survival) ([1]; Exposure time 30 min): +++

O=CCCCC=O [2% glutaraldehyde, glutaraldehyde]
Resistance of SF-nanobacteria to chemical disinfectants (survival) ([1]; Exposure time 10 min): +++ | Resistance of SF-nanobacteria to chemical disinfectants (survival) ([1]; Exposure time 30 min): +++

N=C(N)N [3M Guanidium HCl, guanidium-hydrochloride]
Resistance of SF-nanobacteria to chemical disinfectants (survival) ([1]; Exposure time 30 min): 0 | effect of chemical disinfection on SF-nanobacteria (in words) ([1]; exposure at room temperature, then subculture): deattachment

NC(N)=O [3M Urea, urea]
Resistance of SF-nanobacteria to chemical disinfectants (survival) ([1]; Exposure time 10 min): +++ | Resistance of SF-nanobacteria to chemical disinfectants (survival) ([1]; Exposure time 30 min): +++

C=O [4% formaldehyde, formaldehyde]
Resistance of SF-nanobacteria to chemical disinfectants (survival) ([1]; Exposure time 10 min): +++ | Resistance of SF-nanobacteria to chemical disinfectants (survival) ([1]; Exposure time 30 min): +++

CCO [70% ethanol, ethanol]
Resistance of SF-nanobacteria to chemical disinfectants (survival) ([1]; Exposure time 10 min): +++ | Resistance of SF-nanobacteria to chemical disinfectants (survival) ([1]; Exposure time 30 min): +++

CC(=O)Oc1ccccc1C(=O)O [Acetylsalicylic acid]
IC50 [2]: 500 µg/mL | antinanobacterial effect in the in vitro test (in words) [2]: weak

CC1(C)S[C@@H]2[C@H](NC(=O)[C@H](N)c3ccccc3)C(=O)N2[C@H]1C(=O)O [Ampicillin]
antinanobacterial effect in the in vitro test (in words) [2]: weak bacteriostatic effect | IC50 ([2]; light or radiation study): 500 µg/mL

CC(=O)OCC1=C(C(=O)O)N2C(=O)[C@@H](NC(=O)Cc3cccs3)[C@H]2SC1 [Cephalothin]
IC50 ([2]; light or radiation study): > 500 µg/mL

O=P(O)(O)C(Cl)(Cl)P(=O)(O)O [Chlodronate]
antinanobacterial effect in the in vitro test (in words) [2]: bacteriocidic effect | IC90 [2, 3]: 0.5 µg/mL | IC50 ([2]; light or radiation study): 0.1 µg/mL

O=C(N[C@H](CO)[C@H](O)c1ccc([N+](=O)[O-])cc1)C(Cl)Cl [Chloramphenicol]
IC50 ([2]; light or radiation study): > 500 µg/mL

O=C(O)CC(O)(CC(=O)O)C(=O)O [Citrate]
IC90 ([2]; 12 day time point): 1000 µM | IC50 [2]: 200 µM | antinanobacterial effect in the in vitro test (in words) [2]: effective antinanobacterial agent

CC[C@H]1OC(=O)[C@H](C)[C@@H](O[C@H]2C[C@@](C)(OC)[C@@H](O)[C@H](C)O2)[C@H](C)[C@@H](O[C@@H]2O[C@H](C)C[C@H](N(C)C)[C@H]2O)[C@](C)(OC)C[C@@H](C)C(=O)[C@H](C)[C@@H](O)[C@]1(C)O [Clarithromycin]
IC50 ([2]; light or radiation study): > 500 µg/mL

O=C(O)CN(CCOCCOCCN(CC(=O)O)CC(=O)O)CC(=O)O [EGTA]
antinanobacterial effect in the in vitro test (in words) [2]: antinanobacterial effects

CC[C@@H](CO)NCCN[C@@H](CC)CO [Ethambutol]
IC50 ([2]; light or radiation study): > 500 µg/mL

CC(O)(P(=O)(O)O)P(=O)(O)O [Ethidronate]
antinanobacterial effect in the in vitro test (in words) [2]: bacteriocidic effect | IC90 [2, 3]: 0.5 µg/mL | IC50 ([2]; light or radiation study): 0.1 µg/mL

CCC[C@@H]1C[C@@H](C(=O)N[C@@H]([C@H]2O[C@H](SC)[C@H](O)[C@@H](O)[C@H]2O)[C@@H](C)O)N(C)C1 [Lincomycin]
IC50 ([2]; light or radiation study): > 500 µg/mL

Cc1ncc([N+](=O)[O-])n1CCO [Metronidasole]
MIC 50 ([2]; 50% inhibition, 12 day time point, DMEM with 10% gamma-irradiated FBS): >500 µg/mL
